# Data published in patent US20220175721A1, “TREATMENT FOR POLYCYSTIC OVARIAN SYNDROME (PCOS)” (Cadila Healthcare Limited, priority 2019, published 2022).
# Values joined by “and” are separate entries in the source; they are usually repeats but may differ in a detail not shown here. Equal entries are not always repeated.
# Key:
# Assay type in all cases: in vivo
# [1] = tested on: letrozole-induced PCOS in female Zucker fa/fa rats; assay: Insulin tolerance test in letrozole-induced PCOS rats; conditions: (Ia) 4 mg/kg
# Procedure: (§1) Female Zucker fa/fa rats (6-8 weeks) were issued from animal house of Zydus research Centre and quarantined for 7 weeks. At the age of 13-15 weeks all animals were administered Letrozole (1 mg/kg/2 ml) orally for 4 weeks to induce PCOS.
# (§2) After 4 weeks of Letrozole, all animals with confirmed PCOS on basis of body weight and estrous cycle were randomized. […] Letrozole (1 mg/kg/2 mL) treatment was continued.
# Continuing compound of formula (Ia) treatment for next two days, insulin tolerance test was performed after 6 h fast. […] Whole blood glucose was estimated using One-touch ultra-blood glucose meter. Blood glucose levels were then estimated at 0, 15, 30, 60 and 120 min corresponding to the insulin injection.
# [2] = tested on: letrozole-induced PCOS in female Zucker fa/fa rats; assay: Ovaries weight in letrozole-induced PCOS rats; conditions: (Ia) 4 mg/kg; for Ovaries weight, % Change Vs Vehicle Control / Ovaries weight: after 4 weeks of oral treatment, metformin 200 mg/kg; for Ovaries weight: Mean±SEM, n=6
# Procedure: as §1, with “PCOS. […] Letrozole (1 mg/kg/2 mL) treatment was continued. At the end of study, animals were sacrificed by cervical dislocation and ovaries were collected and weighed.” for “PCOS.”
# [3] = tested on: letrozole-induced PCOS in female Zucker fa/fa rats; assay: Serum LH, FSH and testosterone (ELISA) in letrozole-induced PCOS rats; conditions: (Ia) 4 mg/kg
# Procedure: as §1, §2
# After 4 weeks of compound of formula (Ia) treatment, Insulin was subcutaneously injected at 1.5 U/kg regular insulin and 2 g/kg glucose load was administered orally. Blood was collected 40 min following injection. Serum samples were analyzed for LH, FSH and testosterone using ELISA kit according to manufacturer's instructions.
# [4] = tested on: Letrozole-induced polycystic ovary syndrome (PCOS) in female Wistar rats; assay: Histological count of cystic follicles in letrozole-induced PCOS rats
# Procedure: Sixty female Wistar rats (7-8 weeks) were issued from animal house of Zydus research Centre and quarantined for 4 weeks. At the age of 11-12 weeks all animals were randomized on body weight basis into two treatment groups, namely, vehicle (n=10) as non-PCOS or Letrozole (n=50) for PCOS. Formulated Letrozole (1 mg/kg/2 ml) were administered orally for 4 weeks to induce PCOS.
# After 4 weeks of Letrozole, all animals with confirmed PCOS on basis of body weight and estrous cycle were randomized. After randomization, animals were assigned to either Vehicle control or Compound of Formula (Ia) (4 mg/kg, PO) treatment (n=8). Letrozole (1 mg/kg/2 mL) treatment was continued. Rest of the animals was sacrificed.
# At the end of treatment, animals were sacrificed by cervical dislocation and ovaries were collected in 10% formalin. Ovaries were processed and embedded in paraffin and subjected to serial sectioning at 3-5 μm using rotary microtome, and sections were transferred on glass slides and stained with haematoxylin-eosin (H and E). The evaluation was done using light microscope and grading of the tissue pathological status was done. Total numbers of cystic follicles were counted on all sections throughout each ovary.
# [5] = repeated dose oral treatment, alone or with metformin 200 mg/kg
# [6] = after 4 weeks of oral treatment, metformin 200 mg/kg
# [7] = after 4 weeks of oral treatment, metformin 200 mg/kg, Mean±SEM, n=6
# [8] = 4 mg/kg, individual animal mean of 6 sections
# [9] = 4 mg/kg, individual animal, ovary sections 1-6
structure (smiles),measurement,setting,value
"CCO[C@@H](Cc1ccc(OCCn2c(C)ccc2-c2ccc(SC)cc2)cc1)C(=O)O [Compound of Formula (Ia), Saroglitazar Magnesium]","AUC glucose, % Change Vs Vehicle Control","[1]; insulin tolerance test after 4 weeks of oral treatment, metformin 200 mg/kg",−37.4 ± 4.9%
same,AUC glucose (120 min*mg/dL),"[1]; insulin tolerance test after 4 weeks of oral treatment, metformin 200 mg/kg, Mean±SEM, n=6",6819.0 ± 535.8 mg·min/dL
same,insulin sensitivity (in words),[1]; [5],significantly improved
same,"Ovaries weight, % Change Vs Vehicle Control",[2],−20.7 ± 3.5%
same,Ovaries weight,[2],137.2 ± 6.1 mg
same,ovary weight (in words),[2]; [5],normalized
same,"LH/FSH ratio, % Change Vs Vehicle Control",[3]; [6],−17.1 ± 6.0%
same,"Serum FSH, % Change Vs Vehicle Control",[3]; [6],32.3 ± 4.5%
same,"Serum LH, % Change Vs Vehicle Control",[3]; [6],9.9 ± 7.4%
same,"Serum testosterone, % Change Vs Vehicle Control",[3]; [6],−61.8 ± 4.7%
same,LH/FSH ratio,[3]; [7],1.2 ± 0.1
same,Serum FSH,[3]; [7],103.1 ± 3.5 ng/mL
same,Serum LH,[3]; [7],121.4 ± 8.2 ng/mL
same,Serum testosterone,[3]; [7],1.6 ± 0.2 ng/mL
same,LH/FSH ratio (in words),[3]; repeated dose oral treatment,decreased
same,serum FSH (in words),[3]; repeated dose oral treatment,increased
same,serum testosterone (in words),[3]; [5],decreased
same,"cystic follicles, Mean of ovary sections, Animal-9",[4]; [8],3.50
same,"cystic follicles, Mean of ovary sections, Animal-10",[4]; [8],3.50
same,"cystic follicles, Mean of ovary sections, Animal-11",[4]; [8],7.50
same,"cystic follicles, Mean of ovary sections, Animal-12",[4]; [8],3.83
same,"cystic follicles, Mean of ovary sections, Animal-13",[4]; [8],2.00
same,"cystic follicles, Mean of ovary sections, Animal-14",[4]; [8],4.67
same,"cystic follicles, Mean of ovary sections, Animal-15",[4]; [8],3.83
same,"cystic follicles, Mean of ovary sections, Animal-16",[4]; [8],9.50
same,"cystic follicles per ovary section, Animal-9",[4]; [9],4 (3×) and 3 (3×)
same,"cystic follicles per ovary section, Animal-10",[4]; [9],3 (3×) and 4 (3×)
same,"cystic follicles per ovary section, Animal-11",[4]; [9],7 (3×) and 8 (3×)
same,"cystic follicles per ovary section, Animal-12",[4]; [9],4 and 3 (3×) and 5 (2×)
same,"cystic follicles per ovary section, Animal-13",[4]; [9],2
same,"cystic follicles per ovary section, Animal-14",[4]; [9],5 (4×) and 4 (2×)
same,"cystic follicles per ovary section, Animal-15",[4]; [9],4 and 3 (3×) and 5 (2×)
same,"cystic follicles per ovary section, Animal-16",[4]; [9],11 (3×) and 10 and 2 and 12
same,"Number of cystic follicle, % Change Vs Vehicle control","[4]; after 4 weeks of treatment, 4 mg/kg PO",−56.6 ± 7.9%
same,Number of cystic follicle,"[4]; after 4 weeks of treatment, 4 mg/kg PO, Mean ± SEM, n=8",4.79 ± 0.87
same,occurrence of cystic follicles (in words),"[4]; female Wistar rats, PCOS induced using Letrozole",significantly decreased
"CN(C)C(=N)N=C(N)N [Metformin, reference compound]","Ovaries weight, % Change Vs Vehicle Control",[2],−2.4 ± 4.1%
same,Ovaries weight,[2],169.8 ± 11.9 mg
same,"Serum FSH, % Change Vs Vehicle Control",[3]; [6],4.4 ± 3.6%
same,"Serum LH, % Change Vs Vehicle Control",[3]; [6],0.81 ± 3.1%
same,"Serum testosterone, % Change Vs Vehicle Control",[3]; [6],−2.4 ± 4.1%
same,Serum FSH,[3]; [7],85.3 ± 3.2 ng/mL
same,Serum LH,[3]; [7],109.6 ± 9.2 ng/mL
same,Serum testosterone,[3]; [7],4.0 ± 0.9 ng/mL
